This passage reports speed of sound results from the NIST ThermoML archive (doi:10.1016/j.jct.2017.05.010).

The conditions of the data set: 101.33 kPa, Liquid, Single path-length method.

± gives the expanded uncertainty stated by the source.

Turning to `CCCCOCCCN` [3-butoxy-1-propanamine], the speed of sound (283.15 K) was determined as 1387.3 ± 1.7 m/s; the speed of sound (288.15 K) was determined as 1367.3 ± 1.7 m/s; the speed of sound (293.15 K) is recorded as 1346.7 ± 1.7 m/s; the speed of sound (298.15 K) was 1326.4 ± 1.7 m/s; the speed of sound (303.15 K) stood at 1306.7 ± 1.7 m/s.

Broadly, the speed of sound is the propagation velocity of pressure waves in the medium.
